In ChEMBL document CHEMBL1201862, “PubChem BioAssay data set” (2004):
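48-hour exposure; five concentrations; linearly interpolated endpoints. At the GI50, growth is halved.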 Calls of active or inactive are those of the source. No stated cut-off is given here; in the data, active = GI50 up to about 1.1 µM and inactive = higher.

Assays:
Test in all cases: growth of human tumour cells (NCI), 48 h
COLO 205 = system: COLO 205
DU-145 = system: DU-145
HCT-116 = system: HCT-116
HL-60 = system: HL-60
HOP-92 = system: HOP-92
Hs-578T = system: Hs-578T
IGROV-1 = system: IGROV-1
LOX IMVI = system: LOX IMVI
Malme-3M = system: Malme-3M
NCI-H522 = system: NCI-H522
OVCAR-8 = system: OVCAR-8
PC-3 = system: PC-3
RPMI-8226 = system: RPMI-8226
SK-MEL-28 = system: SK-MEL-28
SK-MEL-5 = system: SK-MEL-5
SK-OV-3 = system: SK-OV-3
SN12C = system: SN12C
T47D = system: T47D
TK-10 = system: TK-10
HCC 2998 = system: HCC 2998

Measured: GI50

C[N+](C)([O-])CCC=C1c2ccccc2CCc2ccccc21
inactive: COLO 205 20 µM | DU-145 26 µM | HCT-116 29.6 µM | HL-60 12.6 µM | HOP-92 25.5 µM | Hs-578T 25.6 µM | IGROV-1 17.1 µM | LOX IMVI 1.14 µM | Malme-3M 18.5 µM | NCI-H522 16.6 µM | OVCAR-8 23.4 µM | PC-3 24.7 µM | RPMI-8226 11.5 µM | SK-MEL-28 33.5 µM | SK-MEL-5 17.7 µM | SK-OV-3 37.8 µM | SN12C 24.2 µM | T47D 22.2 µM | TK-10 53.2 µM

Cc1ccc(N2CCC3(CC2)OCCO3)cc1
inactive: COLO 205 > 100 µM | DU-145 > 100 µM | HCC 2998 > 100 µM | HCT-116 > 100 µM | HL-60 > 100 µM | HOP-92 > 100 µM | Hs-578T > 100 µM | IGROV-1 > 100 µM | Malme-3M > 100 µM | NCI-H522 > 100 µM | OVCAR-8 > 100 µM | PC-3 > 100 µM | RPMI-8226 > 100 µM | SK-MEL-28 > 100 µM | SK-MEL-5 > 100 µM | SK-OV-3 > 100 µM | SN12C > 100 µM | T47D > 100 µM | TK-10 > 100 µM

c1ccc([B-]2(c3ccccc3)OCCc3cccc[n+]32)cc1
inactive: COLO 205 26.2 µM | DU-145 88.1 µM | HCT-116 35 µM | HL-60 40.8 µM | HOP-92 28.2 µM | Hs-578T 37.7 µM | IGROV-1 66.1 µM | LOX IMVI 97.3 µM | Malme-3M 42.4 µM | NCI-H522 49.1 µM | OVCAR-8 75 µM | PC-3 18.5 µM | RPMI-8226 65.3 µM | SK-MEL-28 47.8 µM | SK-MEL-5 41.2 µM | SK-OV-3 74.8 µM | SN12C 59.3 µM | T47D 41 µM | TK-10 54.3 µM

COc1c(OC/C=C(\C)CCC=C(C)C)ccc2ccc(=O)oc12 [COLLININ]
inactive: COLO 205 > 100 µM | DU-145 > 100 µM | HCC 2998 > 100 µM | HCT-116 > 100 µM | HL-60 43.4 µM | HOP-92 77.4 µM | Hs-578T 90.4 µM | IGROV-1 > 100 µM | LOX IMVI > 100 µM | NCI-H522 > 100 µM | OVCAR-8 > 100 µM | PC-3 24.2 µM | RPMI-8226 > 100 µM | SK-MEL-28 > 100 µM | SK-MEL-5 48.1 µM | SK-OV-3 > 100 µM | SN12C > 100 µM | T47D 62.5 µM | TK-10 > 100 µM
